The text below walks through data of ChEMBL document CHEMBL3875185, “Structure-anticonvulsant activity studies in the group of (E)-N-cinnamoyl aminoalkanols derivatives monosubstituted in phenyl ring with 4-Cl, 4-CH3 or 2-CH3” (Bioorg Med Chem, 2017).

Series [1] concerns the target Calcitonin gene-related peptide type 1 receptor (Homo sapiens) (UniProt Q16602). In words: Displacement of [125I]hCGRPa from human recombinant CGRP receptor expressed in CHO cells at 100 uM measured after 90 mins by scintillation counting method relative to control. The format is cell-based. On the technique in general: In a radioligand displacement assay an active substance lowers the binding of a labelled ligand.

Series [2] concerns Mus musculus. In words: Anticonvulsant activity in po dosed 6-Hz induced seizure mouse model assessed as restoration of normal activity within 10 secs from stimulation by measuring time to peak effect at 44 mA. The format is functional.
Series [3] has as its system Mus musculus. In words: Anticonvulsant activity in po dosed maximal electroshock induced seizure mouse model assessed as suppression in hindlimb tonic extension. Type of series: functional. In general terms: The maximal electroshock test induces tonic seizures with an electrical stimulus.
The species named for series [4] is Rattus norvegicus. The experiment in a line: Displacement of [3H]D888 from rat cerebral cortex calcium channel L type verapamil binding site at 100 uM measured after 120 mins by scintillation counting method relative to control.
The test system of series [5] is Mus musculus. In words: Anticonvulsant activity in po dosed maximal electroshock induced seizure mouse model assessed as suppression in hindlimb tonic extension by measuring time to peak effect. The format is functional.
Series [6] has as its system Rattus norvegicus. The experiment in a line: Anticonvulsant activity in maximal electroshock induced seizure Sprague-Dawley rat model assessed as suppression in hindlimb tonic extension at 30 mg/kg, ip measured at 1 hr post dose. Type of series: functional, organism-based.
Series [7] deals with Mus musculus. In words: Anticonvulsant activity in 6-Hz induced seizure mouse model assessed as restoration of normal activity within 10 secs from stimulation at 100 mg/kg, ip at 32 mA measured at 1 hr post dose. Type of series: functional, organism-based.
Series [8] concerns the target B2 bradykinin receptor (Homo sapiens) (UniProt P30411). The experiment in a line: Displacement of [3H]bradykinin from human recombinant bradykinin B2 receptor expressed in CHO cells at 100 uM measured after 60 mins by scintillation counting method relative to control. The format is cell-based.
Series [9] has as its system Mus musculus. In words: Neurotoxicity in mouse assessed as induction of motor impairment at 300 mg/kg, ip measured at 0.5 hrs post dose by rotarod method. The format is toxicity, organism-based. The following applies: in vivo. On the technique in general: The rotarod test checks motor coordination on a turning rod.
Series [10] relates to Mus musculus. The experiment in a line: Anticonvulsant activity in po dosed 6-Hz induced seizure mouse model assessed as restoration of normal activity within 10 secs from stimulation at 44 mA. The format is functional.
The test system of series [11] is Mus musculus. In words: Anticonvulsant activity in po dosed pentylenetetrazole induced seizure mouse model assessed as no observable episode of clonic convulsion of at least 5 secs. Type of series: functional.
The species entered for series [12] is Rattus norvegicus. The experiment in a line: Displacement of [125I]alpha-dendrotoxin from rat cerebral cortex Kv channel at 100 uM measured after 60 mins by scintillation counting method relative to control.
The nature of series [13]: Protection index, ratio of TD50 for neurotoxicity in po dosed mouse to ED50 for po dosed 6-Hz induced seizure mouse model at 44 mA. The format is toxicity, organism-based. The following applies: in vivo, read-out: Ratio TD50/ED50.
Series [14] in a line: Protection index, ratio of TD50 for neurotoxicity in po dosed mouse to ED50 for po dosed maximal electroshock induced seizure mouse model. The format is toxicity, organism-based. The settings on record: in vivo, read-out: Ratio TD50/ED50.
For series [15], the target named is Neurotensin receptor type 1 (Homo sapiens) (UniProt P30989). In words: Displacement of [125I]Tyr3-neurotensin from human recombinant NTS1 receptor expressed in CHO cells at 100 uM measured after 60 mins by scintillation counting method relative to control. Type of series: cell-based.
Sequence of Neurotensin receptor type 1 (Homo sapiens) (P30989 whole entry): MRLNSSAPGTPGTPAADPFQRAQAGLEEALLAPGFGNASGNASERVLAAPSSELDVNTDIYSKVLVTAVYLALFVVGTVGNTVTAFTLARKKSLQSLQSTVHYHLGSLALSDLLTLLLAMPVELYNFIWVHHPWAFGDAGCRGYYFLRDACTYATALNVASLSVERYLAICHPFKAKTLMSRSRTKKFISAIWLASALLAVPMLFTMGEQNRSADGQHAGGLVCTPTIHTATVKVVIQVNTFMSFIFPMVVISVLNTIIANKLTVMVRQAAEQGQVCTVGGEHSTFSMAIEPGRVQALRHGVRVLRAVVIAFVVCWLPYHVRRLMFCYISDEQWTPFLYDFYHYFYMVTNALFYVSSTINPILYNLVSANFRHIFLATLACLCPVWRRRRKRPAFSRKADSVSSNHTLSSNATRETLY
The test system of series [16] is Rattus norvegicus. The experiment in a line: Neurotoxicity in Sprague-Dawley rat assessed as behavioral change at 30 mg/kg, ip measured at […] post dose. Type of series: toxicity, organism-based. The following applies: in vivo.
In series [17] the test system is Mus musculus. The experiment in a line: Anticonvulsant activity in po dosed pentylenetetrazole induced seizure mouse model assessed as no observable episode of clonic convulsion of at least 5 secs by measuring time to peak effect. The format is functional.
Series [18] can be described thus: Protection index, ratio of TD50 for neurotoxicity in po dosed mouse to ED50 for po dosed pentylenetetrazole induced seizure mouse model. The settings on record: in vivo, read-out: Ratio TD50/ED50. Type of series: toxicity, organism-based.
The species named for series [19] is Rattus norvegicus. The experiment in a line: Displacement of [125I][Tyr4]bombesin from rat cerebral cortex BB receptor at 100 uM measured after 60 mins by scintillation counting method relative to control.
The subject of the next series is AtT20. In words: Displacement of [125I]Tyr11-somatostatin-14 from Sst receptor in mouse AtT-20 cells at 100 uM measured after 60 mins by scintillation counting method relative to control. The format is cell-based.
Series [20] concerns the target Type-1 angiotensin II receptor (Homo sapiens) (UniProt P30556). The experiment in a line: Displacement of [125I][Sar1,Ile8]-AT2 from human recombinant AT1 receptor expressed in HEK293 cells at 100 uM measured after 120 mins by scintillation counting method relative to control. Type of series: cell-based.
Series [21] concerns Mus musculus. In words: Neurotoxicity in mouse assessed as induction of motor impairment at 300 mg/kg, ip measured at 4 hrs post dose by rotarod method. The following applies: in vivo. The format is toxicity, organism-based.
In series [22] the test system is Rattus norvegicus. In words: Neurotoxicity in Sprague-Dawley rat assessed as behavioral change at 50 mg/kg, ip measured at […] post dose. Type of series: toxicity, organism-based. The following applies: in vivo.
Series [23] concerns the target Neuropeptide Y receptor type 2 (Homo sapiens) (UniProt P49146). In words: Displacement of [125I]peptide YY from Y2 in human KAN-TS cells receptor at 100 uM measured after 60 mins by scintillation counting method relative to control. The format is cell-based.
The target in series [24] is Glucocorticoid receptor (Homo sapiens) (UniProt P04150). The experiment in a line: Displacement of [3H]dexamethasone from GR receptor in human IM9 cells at 100 uM relative to control. Type of series: cell-based. The settings on record: IM-9.
Sequence of Glucocorticoid receptor (Homo sapiens) (P04150 whole entry): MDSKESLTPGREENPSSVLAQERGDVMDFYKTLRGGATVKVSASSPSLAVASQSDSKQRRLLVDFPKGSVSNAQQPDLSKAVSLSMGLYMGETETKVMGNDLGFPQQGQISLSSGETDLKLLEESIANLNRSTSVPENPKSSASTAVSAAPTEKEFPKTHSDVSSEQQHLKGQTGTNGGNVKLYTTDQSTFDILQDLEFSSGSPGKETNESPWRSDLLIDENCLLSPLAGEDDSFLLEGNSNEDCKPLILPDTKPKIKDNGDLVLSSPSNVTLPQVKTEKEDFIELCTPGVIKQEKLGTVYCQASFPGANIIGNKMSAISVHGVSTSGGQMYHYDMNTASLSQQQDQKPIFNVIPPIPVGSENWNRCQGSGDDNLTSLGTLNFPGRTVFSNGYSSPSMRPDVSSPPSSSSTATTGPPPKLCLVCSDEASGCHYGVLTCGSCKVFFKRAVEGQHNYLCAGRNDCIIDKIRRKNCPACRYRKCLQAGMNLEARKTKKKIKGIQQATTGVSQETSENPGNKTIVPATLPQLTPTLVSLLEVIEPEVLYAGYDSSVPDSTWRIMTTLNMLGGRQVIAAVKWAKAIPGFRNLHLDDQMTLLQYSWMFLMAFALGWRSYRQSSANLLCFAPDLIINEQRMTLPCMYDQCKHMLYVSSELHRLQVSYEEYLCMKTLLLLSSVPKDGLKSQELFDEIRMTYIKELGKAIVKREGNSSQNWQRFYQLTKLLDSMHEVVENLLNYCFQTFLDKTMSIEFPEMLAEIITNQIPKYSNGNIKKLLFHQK
The test system of series [25] is Rattus norvegicus. The experiment in a line: Anticonvulsant activity in maximal electroshock induced seizure Sprague-Dawley rat model assessed as suppression in hindlimb tonic extension at 30 mg/kg, po measured at 0.5 hrs post dose. Type of series: functional, organism-based.
In series [26] the test system is Rattus norvegicus. The experiment in a line: Neurotoxicity in Sprague-Dawley rat assessed as behavioral change at 50 mg/kg, ip measured at 1 hr post dose. The format is toxicity, organism-based. The settings on record: in vivo.
Series [27] has as its system Rattus norvegicus. In words: Neurotoxicity in Sprague-Dawley rat assessed as behavioral change at 50 mg/kg, ip measured at 0.5 hrs post dose. Type of series: toxicity, organism-based. The settings on record: in vivo.
Series [28] relates to Rattus norvegicus. The experiment in a line: Neurotoxicity in Sprague-Dawley rat assessed as behavioral change at 50 mg/kg, ip measured at 4 hrs post dose. The settings on record: in vivo. The format is toxicity, organism-based.
The subject of series [29] is Mus musculus. The experiment in a line: Anticonvulsant activity in maximal electroshock induced seizure mouse model assessed as suppression in hindlimb tonic extension at 300 mg/kg, ip measured at 4 hrs post dose. The format is functional, organism-based.
In series [30] the target is Histamine H2 receptor (Homo sapiens) (UniProt P25021). The experiment in a line: Displacement of [125I]APT from human recombinant H2 receptor expressed in CHO cells at 100 uM measured after 120 mins by scintillation counting method relative to control. Type of series: cell-based.
Sequence of Histamine H2 receptor (Homo sapiens) (P25021 whole entry): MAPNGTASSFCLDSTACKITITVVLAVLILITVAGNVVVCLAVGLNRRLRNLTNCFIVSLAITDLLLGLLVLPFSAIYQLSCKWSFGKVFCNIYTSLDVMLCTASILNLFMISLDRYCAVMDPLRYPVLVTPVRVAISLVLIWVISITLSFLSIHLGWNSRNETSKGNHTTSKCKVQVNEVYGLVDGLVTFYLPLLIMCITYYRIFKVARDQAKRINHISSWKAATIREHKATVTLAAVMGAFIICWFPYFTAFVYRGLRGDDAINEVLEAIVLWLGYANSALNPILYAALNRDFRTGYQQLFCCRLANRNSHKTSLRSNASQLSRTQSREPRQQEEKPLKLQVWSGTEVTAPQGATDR
For series [31], the system named is Rattus norvegicus. The experiment in a line: Neurotoxicity in Sprague-Dawley rat assessed as behavioral change at 50 mg/kg, ip measured at 2 hrs post dose. The settings on record: in vivo. Type of series: toxicity, organism-based.
Series [32] relates to Mus musculus. The experiment in a line: Anticonvulsant activity in 6-Hz induced seizure mouse model assessed as restoration of normal activity within 10 secs from stimulation at 100 mg/kg, ip at 44 mA measured at 0.5 hrs post dose. Type of series: functional, organism-based.
Series [33] concerns the target Vasopressin V1a receptor (Homo sapiens) (UniProt P37288). The experiment in a line: Displacement of [3H]AVP from human recombinant V1a receptor expressed in CHO cells at 100 uM measured after 60 mins by scintillation counting method relative to control. The format is cell-based.
The target of series [34] is Gastrin/cholecystokinin type B receptor (Homo sapiens) (UniProt P32239). In words: Displacement of [125I]CCK-8s from human recombinant CCK2 receptor expressed in CHO cells at 100 uM measured after 60 mins by scintillation counting method relative to control. Type of series: cell-based.
Sequence of Gastrin/cholecystokinin type B receptor (Homo sapiens) (P32239 whole entry): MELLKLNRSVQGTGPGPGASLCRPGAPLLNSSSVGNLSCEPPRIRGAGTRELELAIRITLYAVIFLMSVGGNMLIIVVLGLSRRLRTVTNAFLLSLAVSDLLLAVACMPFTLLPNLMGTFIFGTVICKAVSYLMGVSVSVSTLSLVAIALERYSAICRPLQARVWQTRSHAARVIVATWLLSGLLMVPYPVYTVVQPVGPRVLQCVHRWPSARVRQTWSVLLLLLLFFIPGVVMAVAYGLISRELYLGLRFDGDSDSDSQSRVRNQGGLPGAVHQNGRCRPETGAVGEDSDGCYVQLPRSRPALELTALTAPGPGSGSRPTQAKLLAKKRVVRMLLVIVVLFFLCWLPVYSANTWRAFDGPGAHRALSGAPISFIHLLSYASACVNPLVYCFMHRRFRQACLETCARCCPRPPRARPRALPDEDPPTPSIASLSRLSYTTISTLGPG
The subject of series [35] is Rattus norvegicus. In words: Anticonvulsant activity in maximal electroshock induced seizure Sprague-Dawley rat model assessed as suppression in hindlimb tonic extension at 30 mg/kg, ip measured at 0.5 hrs post dose. Type of series: functional, organism-based.
The species named for series [36] is Rattus norvegicus. The experiment in a line: Displacement of [3H]a,b-MeATP from rat urinary bladder P2X receptor at 100 uM measured after 120 mins by scintillation counting method relative to control.

Activity calls are given as the source filed them. The calls are words filed in the database; no cut-off is given here.

Sequence of Calcitonin gene-related peptide type 1 receptor (Homo sapiens) (Q16602 whole entry): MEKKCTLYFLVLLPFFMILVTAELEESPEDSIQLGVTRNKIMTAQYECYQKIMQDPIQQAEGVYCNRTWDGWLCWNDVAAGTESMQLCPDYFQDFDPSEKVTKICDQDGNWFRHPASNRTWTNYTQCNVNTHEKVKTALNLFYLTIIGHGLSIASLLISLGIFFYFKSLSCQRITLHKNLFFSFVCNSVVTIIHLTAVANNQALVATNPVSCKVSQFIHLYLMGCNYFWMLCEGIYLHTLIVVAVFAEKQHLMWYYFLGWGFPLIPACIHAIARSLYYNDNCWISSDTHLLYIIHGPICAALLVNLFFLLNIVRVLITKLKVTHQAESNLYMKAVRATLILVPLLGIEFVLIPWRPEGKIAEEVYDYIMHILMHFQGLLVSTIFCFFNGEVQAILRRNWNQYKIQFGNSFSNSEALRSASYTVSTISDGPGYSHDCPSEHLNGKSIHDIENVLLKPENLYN
Sequence of Type-1 angiotensin II receptor (Homo sapiens) (P30556 whole entry): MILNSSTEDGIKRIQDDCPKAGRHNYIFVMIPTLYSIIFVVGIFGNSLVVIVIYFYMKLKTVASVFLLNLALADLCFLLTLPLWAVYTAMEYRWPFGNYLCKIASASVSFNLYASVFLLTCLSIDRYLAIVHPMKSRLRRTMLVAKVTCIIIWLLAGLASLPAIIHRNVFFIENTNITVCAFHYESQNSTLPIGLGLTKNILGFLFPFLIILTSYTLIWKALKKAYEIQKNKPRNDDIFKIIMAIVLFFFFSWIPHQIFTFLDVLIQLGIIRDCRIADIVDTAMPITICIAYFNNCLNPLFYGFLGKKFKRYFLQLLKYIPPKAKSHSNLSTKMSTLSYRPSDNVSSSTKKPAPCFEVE
Sequence of Vasopressin V1a receptor (Homo sapiens) (P37288 whole entry, looked up): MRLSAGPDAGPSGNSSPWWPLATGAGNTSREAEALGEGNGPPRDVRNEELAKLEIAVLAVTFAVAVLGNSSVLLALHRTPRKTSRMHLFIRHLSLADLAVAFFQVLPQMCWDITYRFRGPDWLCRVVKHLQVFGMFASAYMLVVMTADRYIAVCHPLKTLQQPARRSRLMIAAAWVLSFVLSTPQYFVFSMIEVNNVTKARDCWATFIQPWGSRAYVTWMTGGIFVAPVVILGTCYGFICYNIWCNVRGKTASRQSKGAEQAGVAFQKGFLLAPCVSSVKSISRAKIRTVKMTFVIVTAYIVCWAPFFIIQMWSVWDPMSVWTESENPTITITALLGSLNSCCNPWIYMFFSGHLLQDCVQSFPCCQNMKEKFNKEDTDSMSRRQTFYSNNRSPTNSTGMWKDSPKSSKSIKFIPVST
Sequence of B2 bradykinin receptor (Homo sapiens) (P30411 whole entry): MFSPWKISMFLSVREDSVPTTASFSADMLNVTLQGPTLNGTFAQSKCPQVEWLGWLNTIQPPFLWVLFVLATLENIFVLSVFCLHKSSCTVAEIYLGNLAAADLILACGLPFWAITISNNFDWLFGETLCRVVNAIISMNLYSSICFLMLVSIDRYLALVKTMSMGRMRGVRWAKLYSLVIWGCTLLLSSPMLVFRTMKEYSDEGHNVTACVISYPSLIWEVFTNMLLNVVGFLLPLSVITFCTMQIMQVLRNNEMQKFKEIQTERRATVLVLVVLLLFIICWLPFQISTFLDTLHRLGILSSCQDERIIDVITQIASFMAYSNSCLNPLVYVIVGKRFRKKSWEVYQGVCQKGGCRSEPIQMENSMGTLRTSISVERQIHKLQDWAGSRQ
Sequence of Neuropeptide Y receptor type 2 (Homo sapiens) (P49146 whole entry): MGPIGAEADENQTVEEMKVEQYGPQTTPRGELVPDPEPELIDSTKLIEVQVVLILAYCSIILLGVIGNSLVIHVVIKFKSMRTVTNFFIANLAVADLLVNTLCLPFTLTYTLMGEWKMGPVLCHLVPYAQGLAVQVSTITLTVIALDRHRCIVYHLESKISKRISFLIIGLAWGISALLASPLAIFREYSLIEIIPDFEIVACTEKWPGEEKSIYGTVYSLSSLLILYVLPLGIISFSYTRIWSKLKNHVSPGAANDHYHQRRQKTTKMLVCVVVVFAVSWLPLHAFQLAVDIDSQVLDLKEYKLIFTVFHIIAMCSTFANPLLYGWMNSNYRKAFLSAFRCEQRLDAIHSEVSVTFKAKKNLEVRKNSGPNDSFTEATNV

Broadly, the inhibition is the drop in the measured response relative to a control, in per cent. One may read the ED50 as the dose at which the effect has come halfway, by size or by number of responders. `Cc1ccccc1/C=C/C(=O)N[C@@H](C)CO`: the inhibition in series [1] was -7.6%; in the series filed under Rattus norvegicus [4], -0.4%; in series [8] it was -8.3%; in the series listed under Rattus norvegicus [12], -8.7%; in [15], -4.6%; in the series filed under Rattus norvegicus [19], -3.4%. The inhibition with AtT20 is -4.6%; in series [20], -0.8%. Further, the Time in the series with Mus musculus [2], with Mus musculus [5] and in the series with Mus musculus [17] was 0.5 h each time. Besides, the ED50 in the series on Mus musculus [3] is 43.3 mg/kg; with Mus musculus [10], 74.1 mg/kg; with Mus musculus [11] it was 132 mg/kg. Further, the outcome with Rattus norvegicus [6] and in the series on Mus musculus [7] was Active. For the same molecule, the figures for the Activity entry with Mus musculus [9], with Rattus norvegicus [16] and in the series with Mus musculus [21] were “Toxic”, “Non-Toxic” and “Non-Toxic”, respectively. Further, the selectivity ratio was determined as 3.81 in series [13], 6.51 in series [14] and 2.15 in series [18].

As to `CC(O)CNC(=O)/C=C/c1ccc(Cl)cc1` (stereo not drawn), the inhibition is -6.9% in [1]; -2.5% in the series filed under Rattus norvegicus [4]; -1% in series [8]; 14.1% in series [23]; -7% in series [24]; -9.6% in the series filed under Rattus norvegicus [12]. Further, the inhibition in [15] was -2.6%; in [30] it was -6.4%; in the series listed under Rattus norvegicus [19], -0.1%; in series [20], -9.6%; in series [33] it was 9%; in series [34], -9.8%. In addition, the Time in the series with Mus musculus [2], in the series with Mus musculus [5] and with Mus musculus [17] was 1 h in each case. Further, the Activity result with Rattus norvegicus [22] was “Non-Toxic”; in the series on Mus musculus [9] it was “Toxic”; with Rattus norvegicus [26] it was “Non-Toxic”; in the series with Rattus norvegicus [27], “Non-Toxic”; in the series with Rattus norvegicus [28], “Non-Toxic”; with Rattus norvegicus [31], “Non-Toxic”. Also, the Activity entry with Mus musculus [21] is on record as “Toxic”. Moreover, the median effective dose (ED50) amounted to 92.5 mg/kg in the series on Mus musculus [3], 120 mg/kg with Mus musculus [10] and 132 mg/kg with Mus musculus [11]. Moreover, the result in the series with Mus musculus [7], with Rattus norvegicus [25], in the series with Mus musculus [29] and with Mus musculus [32] was Active. For the same molecule, the selectivity ratio in series [13] is above 4.17; in series [14], above 5.41; in [18] it was above 3.79.

For `CCC(CO)NC(=O)/C=C/c1ccc(Cl)cc1` (stereo not drawn), the Activity entry with Rattus norvegicus [22], in the series with Rattus norvegicus [26], in the series with Rattus norvegicus [27], in the series on Rattus norvegicus [28] and in the series with Rattus norvegicus [31] was “Non-Toxic” in each case. Also, the outcome in the series with Rattus norvegicus [35], with Mus musculus [29] and with Mus musculus [32] was Active. Moreover, the inhibition in series [23] is 4.3%; in series [24], -9.9%; in the series listed under Rattus norvegicus [36] it was -8.2%; in series [30], -5.2%; in the series on AtT20, -10%; in series [33] it was 10.6%.
